In US9957268B2, “1H-pyrrolo[2,3,c]pyridin-7(6H)-ones and pyrazolo[3,4-c]pyridin-7(6H)-ones as inhibitors of BET proteins” (Incyte Corporation, priority 2014, dated 2018):

Experiments:
BRD4-BD2 = BRD4-BD2 (Homo sapiens (Human), UniProt O60885); test: BRD4 AlphaScreen assay (BRD4-BD2); type: binding; conditions: biotin-labeled tetra-acetylated histone H4 peptide
Protocol: (§1) BRD4-BD1 and BRD4-BD2 assays were conducted in white 384-well polystyrene plate in a final volume of 40 μL for BD1 and 60 μL for BD2. Inhibitors were first serially diluted in DMSO and added to the plate wells before the addition of other reaction components. The final concentration of DMSO in the assay was 1.25% (BD1) and 0.83% (BD2). The assays were carried out at room temperature in the assay buffer (50 mM Tris-HCl, pH 7.5, 0.01% Tween-20, 0.01% BSA, 5 mM DTT), containing 50 nM Biotin-labeled tetra-acetylated histone H4 peptide (H4Ac4) and BRD4-BD1 or BRD4-BD2 protein at concentration less than 1 nM. The incubation for 75 min. was followed by the addition of 20 μL of assay buffer supplemented with Streptavidin donor beads (PerkinElmer 6760002) and GSH Acceptor beads (PerkinElmer-AL109C) at final concentration 2-4 μg/mL under reduced light. After plate sealing, the plate was incubated in the dark at room temperature for 75 min. before reading on a PHERAstar FS plate reader (BMG Labtech). IC50 determination was performed by fitting the curve of percent control activity versus the log of the inhibitor concentration using the GraphPad Prism 5.0 software.

BRD4-BD1 = BRD4-BD1 (Homo sapiens (Human), UniProt O60885); test: BRD4 AlphaScreen assay (BRD4-BD1); type: binding; conditions: biotin-labeled tetra-acetylated histone H4 peptide
Protocol: as §1

CC(=O)NCc1cc2c(c(-c3cn(C)c(=O)c4[nH]ccc34)c1)OC(C(C)C)C(=O)N2 (stereo not drawn) [Example 40, N-{[2-isopropyl-8-(6-methyl-7-oxo-6,7-dihydro-1H-pyrrolo[2,3-c]pyridin-4-yl)-3-oxo-3,4-dihydro-2H-1,4-benzoxazin-6-yl]methyl}acetamide]
IC50 (BRD4-BD2): ≤ 100 nM
IC50 (BRD4-BD1): ≤ 100 nM

CC(C)C1Oc2c(cccc2-c2cn(C)c(=O)c3[nH]ccc23)NC1=O (stereo not drawn) [Example 2, 2-isopropyl-8-(6-methyl-7-oxo-6,7-dihydro-1H-pyrrolo[2,3-c]pyridin-4-yl)-2H-1,4-benzoxazin-3(4H)-one]
IC50 (BRD4-BD2): ≤ 100 nM
IC50 (BRD4-BD1): ≤ 100 nM

CC(C)C1Oc2c(cc([N+](=O)[O-])cc2-c2cn(C)c(=O)c3[nH]ccc23)NC1=O (stereo not drawn) [Example 21, 2-isopropyl-8-(6-methyl-7-oxo-6,7-dihydro-1H-pyrrolo[2,3-c]pyridin-4-yl)-6-nitro-2H-1,4-benzoxazin-3(4H)-one]
IC50 (BRD4-BD2): ≤ 100 nM
IC50 (BRD4-BD1): 100 to 1000 nM

CC(C)[C@@H]1Nc2c(cc(S(C)(=O)=O)cc2-c2cn(C)c(=O)c3[nH]ccc23)NC1=O [Example 60, (3S)-3-isopropyl-5-(6-methyl-7-oxo-6,7-dihydro-1H-pyrrolo[2,3-c]pyridin-4-yl)-7-(methylsulfonyl)-3,4-dihydroquinoxalin-2(1H)-one]
IC50 (BRD4-BD2): ≤ 100 nM
IC50 (BRD4-BD1): ≤ 100 nM

COc1cc2c(c(-c3cn(C)c(=O)c4[nH]ncc34)c1)OC(C1CCCC1)C(=O)N2 (stereo not drawn) [Example 42, 2-Cyclopentyl-6-methoxy-8-(6-methyl-7-oxo-6,7-dihydro-1H-pyrazolo[3,4-c]pyridin-4-yl)-2H-1,4-benzoxazin-3(4H)-one]
IC50 (BRD4-BD2): ≤ 100 nM
IC50 (BRD4-BD1): ≤ 100 nM

Cn1cc(-c2cccc3c2NC(C)(C)C(=O)N3)c2cc[nH]c2c1=O [Example 32, 3,3-dimethyl-5-(6-methyl-7-oxo-6,7-dihydro-1H-pyrrolo[2,3-c]pyridin-4-yl)-3,4-dihydroquinoxalin-2(1H)-one]
IC50 (BRD4-BD2): ≤ 100 nM
IC50 (BRD4-BD1): 100 to 1000 nM

CC(=O)c1cc(-c2cn(C)c(=O)c3[nH]ccc23)c2c(c1)N(C)C(=O)C(C)(C)O2 [Example 82, 6-acetyl-2,2,4-trimethyl-8-(6-methyl-7-oxo-6,7-dihydro-1H-pyrrolo[2,3-c]pyridin-4-yl)-2H-1,4-benzoxazin-3(4H)-one]
IC50 (BRD4-BD2): ≤ 100 nM
IC50 (BRD4-BD1): ≤ 100 nM

CC(=O)c1cc2c(c(-c3cn(C)c(=O)c4[nH]ccc34)c1)OC(C(C)C)C(=O)N2 (stereo not drawn) [Example 49, 6-acetyl-2-isopropyl-8-(6-methyl-7-oxo-6,7-dihydro-1H-pyrrolo[2,3-c]pyridin-4-yl)-2H-1,4-benzoxazin-3(4H)-one]
IC50 (BRD4-BD2): ≤ 100 nM
IC50 (BRD4-BD1): ≤ 100 nM

CC(C)C1Oc2c(cc(CO)cc2-c2cn(C)c(=O)c3[nH]ccc23)NC1=O (stereo not drawn) [Example 36, 6-(hydroxymethyl)-2-isopropyl-8-(6-methyl-7-oxo-6,7-dihydro-1H-pyrrolo[2,3-c]pyridin-4-yl)-2H-1,4-benzoxazin-3(4H)-one]
IC50 (BRD4-BD2): ≤ 100 nM
IC50 (BRD4-BD1): ≤ 100 nM

CN1C(=O)C2(CC2)Oc2c(-c3cn(C)c(=O)c4[nH]ncc34)cc(S(C)(=O)=O)cc21 [Example 66, 4-methyl-8-(6-methyl-7-oxo-6,7-dihydro-1H-pyrazolo[3,4-c]pyridin-4-yl)-6-(methylsulfonyl)spiro[1,4-benzoxazine-2,1′-cyclopropan]-3(4H)-one]
IC50 (BRD4-BD2): ≤ 100 nM
IC50 (BRD4-BD1): ≤ 100 nM

COc1cc2c(c(-c3cn(C)c(=O)c4[nH]ncc34)c1)OC(C(C)C)C(=O)N2 (stereo not drawn) [Example 26, 2-isopropyl-6-methoxy-8-(6-methyl-7-oxo-6,7-dihydro-1H-pyrazolo[3,4-c]pyridin-4-yl)-2H-1,4-benzoxazin-3(4H)-one]
IC50 (BRD4-BD2): ≤ 100 nM
IC50 (BRD4-BD1): ≤ 100 nM

COc1cc2c(c(-c3cn(C)c(=O)c4[nH]ccc34)c1)OC(c1ccccc1)C(=O)N2 (single isomer, unassigned) [Example 24B, 6-methoxy-8-(6-methyl-7-oxo-6,7-dihydro-1H-pyrrolo[2,3-c]pyridin-4-yl)-2-phenyl-2H-1,4-benzoxazin-3(4H)-one]
IC50 (BRD4-BD2): ≤ 100 nM
IC50 (BRD4-BD1): ≤ 100 nM

CC(C)S(=O)(=O)c1cc2c(c(-c3cn(C)c(=O)c4[nH]ccc34)c1)OC(C)(C)C(=O)N2 [Example 79, 6-(isopropylsulfonyl)-2,2-dimethyl-8-(6-methyl-7-oxo-6,7-dihydro-1H-pyrrolo[2,3-c]pyridin-4-yl)-2H-1,4-benzoxazin-3(4H)-one]
IC50 (BRD4-BD2): ≤ 100 nM
IC50 (BRD4-BD1): ≤ 100 nM

CC1Oc2c(cccc2-c2cn(C)c(=O)c3[nH]ccc23)NC1=O (stereo not drawn) [Example 3, 2-methyl-8-(6-methyl-7-oxo-6,7-dihydro-1H-pyrrolo[2,3-c]pyridin-4-yl)-2H-1,4-benzoxazin-3(4H)-one]
IC50 (BRD4-BD2): ≤ 100 nM
IC50 (BRD4-BD1): 100 to 1000 nM

Cn1cc(-c2cc(S(C)(=O)=O)cc3c2OC(c2ccccc2)C(=O)N3)c2cc[nH]c2c1=O (stereo not drawn) [Example 46, 8-(6-methyl-7-oxo-6,7-dihydro-1H-pyrrolo[2,3-c]pyridin-4-yl)-6-(methylsulfonyl)-2-phenyl-2H-1,4-benzoxazin-3(4H)-one]
IC50 (BRD4-BD2): ≤ 100 nM
IC50 (BRD4-BD1): ≤ 100 nM

CC(C)C1Oc2c(cc(C(=O)N(C)C)cc2-c2cn(C)c(=O)c3[nH]ccc23)NC1=O (stereo not drawn) [Example 34, 2-isopropyl-N,N-dimethyl-8-(6-methyl-7-oxo-6,7-dihydro-1H-pyrrolo[2,3-c]pyridin-4-yl)-3-oxo-3,4-dihydro-2H-1,4-benzoxazine-6-carboxamide]
IC50 (BRD4-BD2): ≤ 100 nM
IC50 (BRD4-BD1): ≤ 100 nM

CC(C)C1Oc2c(cc(CN)cc2-c2cn(C)c(=O)c3[nH]ccc23)NC1=O (stereo not drawn) [Example 38, 6-(Aminomethyl)-2-isopropyl-8-(6-methyl-7-oxo-6,7-dihydro-1H-pyrrolo[2,3-c]pyridin-4-yl)-2H-1,4-benzoxazin-3(4H)-one]
IC50 (BRD4-BD2): ≤ 100 nM
IC50 (BRD4-BD1): 100 to 1000 nM

Cn1cc(-c2cc(S(C)(=O)=O)cc3c2OC2(CC2)C(=O)N3)c2cn[nH]c2c1=O [Example 65, 8-(6-methyl-7-oxo-6,7-dihydro-1H-pyrazolo[3,4-c]pyridin-4-yl)-6-(methylsulfonyl)spiro[1,4-benzoxazine-2,1′-cyclopropan]-3(4H)-one]
IC50 (BRD4-BD2): ≤ 100 nM
IC50 (BRD4-BD1): ≤ 100 nM

CC(O)c1cc(-c2cn(C)c(=O)c3[nH]ccc23)c2c(c1)N(C)C(=O)C(C)(C)O2 (single isomer, unassigned) [Example 83B, 6-(1-hydroxyethyl)-2,2,4-trimethyl-8-(6-methyl-7-oxo-6,7-dihydro-1H-pyrrolo[2,3-c]pyridin-4-yl)-2H-1,4-benzoxazin-3(4H)-one]
IC50 (BRD4-BD2): ≤ 100 nM
IC50 (BRD4-BD1): ≤ 100 nM

CCS(=O)(=O)c1cc(-c2cn(C)c(=O)c3[nH]ccc23)c2c(c1)N(C)C(=O)C(C)(C)O2 [Example 76, 6-(ethylsulfonyl)-2,2,4-trimethyl-8-(6-methyl-7-oxo-6,7-dihydro-1H-pyrrolo[2,3-c]pyridin-4-yl)-2H-1,4-benzoxazin-3(4H)-one]
IC50 (BRD4-BD2): ≤ 100 nM
IC50 (BRD4-BD1): ≤ 100 nM

CC(C)C1Oc2c(cc(C(N)=O)cc2-c2cn(C)c(=O)c3[nH]ccc23)NC1=O (stereo not drawn) [Example 41, 2-isopropyl-8-(6-methyl-7-oxo-6,7-dihydro-1H-pyrrolo[2,3-c]pyridin-4-yl)-3-oxo-3,4-dihydro-2H-1,4-benzoxazine-6-carboxamide]
IC50 (BRD4-BD2): ≤ 100 nM
IC50 (BRD4-BD1): ≤ 100 nM

COc1cc2c(c(-c3cn(C)c(=O)c4[nH]ccc34)c1)OC(c1ccc(F)cc1Cl)C(=O)N2 (stereo not drawn) [Example 25, 2-(2-chloro-4-fluorophenyl)-6-methoxy-8-(6-methyl-7-oxo-6,7-dihydro-1H-pyrrolo[2,3-c]pyridin-4-yl)-2H-1,4-benzoxazin-3(4H)-one]
IC50 (BRD4-BD2): ≤ 100 nM
IC50 (BRD4-BD1): ≤ 100 nM

Cn1cc(-c2cc(S(C)(=O)=O)cc3c2NC2(CCCC2)C(=O)N3)c2cc[nH]c2c1=O [Example 59, 8′-(6-methyl-7-oxo-6,7-dihydro-1H-pyrrolo[2,3-c]pyridin-4-yl)-6′-(methylsulfonyl)-1′,4′-dihydro-3′H-spiro[cyclopentane-1,2′-quinoxalin]-3′-one]
IC50 (BRD4-BD2): ≤ 100 nM
IC50 (BRD4-BD1): ≤ 100 nM

Cn1cc(-c2cc(S(=O)(=O)N3CCCCC3)cc3c2OC(C)(C)C(=O)N3)c2cc[nH]c2c1=O [Example 72, 2,2-dimethyl-8-(6-methyl-7-oxo-6,7-dihydro-1H-pyrrolo[2,3-c]pyridin-4-yl)-6-(piperidin-1-ylsulfonyl)-2H-1,4-benzoxazin-3(4H)-one]
IC50 (BRD4-BD2): ≤ 100 nM
IC50 (BRD4-BD1): ≤ 100 nM

CC(C)C1Oc2c(-c3cn(C)c(=O)c4[nH]ccc34)cc(S(C)(=O)=O)cc2N(C)C1=O (stereo not drawn) [Example 47, 2-isopropyl-4-methyl-8-(6-methyl-7-oxo-6,7-dihydro-1H-pyrrolo[2,3-c]pyridin-4-yl)-6-(methylsulfonyl)-2H-1,4-benzoxazin-3(4H)-one]
IC50 (BRD4-BD2): ≤ 100 nM
IC50 (BRD4-BD1): ≤ 100 nM

CNC(=O)CN1C(=O)C(C(C)C)Oc2c(-c3cn(C)c(=O)c4[nH]ccc34)cc(OC)cc21 (stereo not drawn) [Example 12, 2-[2-isopropyl-6-methoxy-8-(6-methyl-7-oxo-6,7-dihydro-1H-pyrrolo[2,3-c]pyridin-4-yl)-3-oxo-2,3-dihydro-4H-1,4-benzoxazin-4-yl]-N-methylacetamide]
IC50 (BRD4-BD2): ≤ 100 nM
IC50 (BRD4-BD1): 100 to 1000 nM
